Source: patent US20230031406A1, “COMPOUNDS AND COMPOSITIONS FOR TREATING CONDITIONS ASSOCIATED WITH NLRP ACTIVITY” (Novartis AG, priority 2018, published 2023)
Read-outs that look alike come from different tables or passages of the source. Each block holds one molecule with its values, some of them ahead of it.

System: PMA-differentiated THP-1 cells
Assay: IL-1β production in PMA-differentiated THP-1 cells stimulated with gramicidin (hTHP-1 assay containing 2% fetal bovine serum; Procedures 1 and 2)
Format: cell-based, human
Settings: 2% fetal bovine serum
Procedure, shortened: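 Compound titrations in 0.37% final DMSO were added to THP-1 cells that had been plated after 16-18 h PMA treatment, 50,000 per well in 2% FBS. One hour later the cells received gramicidin (5 μM, 2 h) and were centrifuged. HTRF detected IL-1β in the collected supernatants.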

[1] = Table B1, class symbols, read-out: Average IC50 of compounds in hTHP-1 assay: hTHP-1 IC50
[2] = Homo sapiens, THP-1, Table B1, class symbols, read-out: Average IC50 of compounds in hTHP-1 assay: hTHP-1 IC50
[3] = Homo sapiens, THP-1, Table B3, hTHP-1 assay, class symbols, read-out: IC50
[4] = Homo sapiens, THP-1, Table B2, class symbols, read-out: hTHP-1 IC50
[5] = Table B2, class symbols, read-out: hTHP-1 IC50

IC50 [1]: 1 to 5 µM
Structure (SMILES): CC(C)(O)c1ncc(S(N)(=O)=NC(=O)Nc2c3c(nc4c2CCC4F)CCC3)s1 (single isomer, unassigned) [Compound 183a, (R,R) or (R,S)-N′-((3-fluoro-1,2,3,5,6,7-hexahydrodicyclo-penta[b,e]pyridin-8-yl)carbamoyl)-2-(2-hydroxypropan-2-yl)thiazole-5-sulfonimidamide]

IC50 [2]: 1 to 5 µM
Structure (SMILES): CC(C)c1ncc(F)c(C(C)C)c1NC(=O)N=S(N)(=O)c1cnc(C(C)(C)O)s1 (stereo not shown) [Compound 164, N′-((5-fluoro-2,4-diisopropylpyridin-3-yl)carbamoyl)-2-(2-hydroxypropan-2-yl)thiazole-5-sulfonimidamide]

IC50 [3]: 1 to 5 µM
Structure (SMILES): CC(C)n1nc(S(N)(=O)=NC(=O)Nc2c3c(nc4c2CCC42CC2)CCC3)cc1CO (single isomer, unassigned) [Example 641, (R) or (S)-5-(hydroxymethyl)-1-isopropyl-N′-((1′,5′,6′,7′-tetrahydro-2′H-spiro[cyclopropane-1,3′-dicyclopenta[b,e]pyridin]-8′-yl)carbamoyl)-1H-pyrazole-3-sulfonimidamide]

IC50 [4]: 0.04 to 0.2 µM
Structure (SMILES): C[C@@H]1CCc2c1nc1c(c2NC(=O)N=S(N)(=O)c2cc(F)c(C(C)(C)O)s2)CCC1 (stereo partly drawn) [Compound 616, 4-Fluoro-5-(2-hydroxypropan-2-yl)-N′-(((R)-3-methyl-1,2,3,5,6,7-hexahydrodicyclopenta[b,e]pyridin-8-yl)carbamoyl)thiophene-2-sulfonimidamide]

IC50 [2]: 0.2 to 1 µM
Structure (SMILES): CC(C)c1csc(S(N)(=O)=NC(=O)Nc2c3c(nc4c2CCC4)CCC3)c1 (single isomer, unassigned) [Compound 173a, (R) or (S)-N′-((1,2,3,5,6,7-hexahydrodicyclo-penta[b,e]pyridin-8-yl)carbamoyl)-4-isopropylthiophene-2-sulfonimidamide]

IC50 [4]: 0.2 to 1 µM
Structure (SMILES): CCn1cc(Cl)c(S(N)(=O)=NC(=O)Nc2c(C)c(C(F)(F)F)nc3c2CCC3)n1 (stereo not shown) [Compound 729]

IC50 [2]: 0.2 to 1 µM
Structure (SMILES): CC1(C)CCc2c1nc1c(c2NC(=O)N=S(N)(=O)c2ccn(C(F)F)n2)CCC1 (stereo not shown) [Compound 122, 1-(difluoromethyl)-N′-((3,3-dimethyl-1,2,3,5,6,7-hexahydrodicyclopenta[b,e]pyridin-8-yl)carbamoyl)-1H-pyrazole-3-sulfonimidamide]

IC50 [5]: 0.04 to 0.2 µM
Structure (SMILES): CCn1cc(Cl)c(S(N)(=O)=NC(=O)Nc2c(C)c(C(F)(F)F)nc3c2CCC3)n1 (single isomer, unassigned) [Compound 729b, (R) or (S)-4-Chloro-1-ethyl-N′-((3-methyl-2-(trifluoromethyl)-6,7-dihydro-5H-cyclopenta[b]pyridin-4-yl)carbamoyl)-1H-pyrazole-3-sulfonimidamide]

IC50 [2]: 1 to 5 µM
Structure (SMILES): CC(C)(O)c1nc(CCO)c(S(N)(=O)=NC(=O)Nc2c3c(nc4c2CCC4)CCC3)s1 (stereo not shown) [Compound 118, N-((1,2,3,5,6,7-hexahydrodicyclopenta[b,e]pyridin-8-yl)carbamoyl)-4-(2-hydroxyethyl)-2-(2-hydroxypropan-2-yl)thiazole-5-sulfonimidamide]

IC50 [4]: 5 to 30 µM
Structure (SMILES): Cc1c(C(F)(F)F)nc2c(c1NC(=O)N=S(N)(=O)c1ccn(C)n1)CCC2 (stereo not shown) [Compound 730]

IC50 [5]: 5 to 30 µM
Structure (SMILES): CC(O)c1nc(C(C)(C)O)sc1S(=N)(=O)NC(=O)Nc1c2c(nc3c1CCC3)CCC2 (stereo not shown) [Compound 643, N-((1,2,3,5,6,7-hexahydrodicyclopenta[b,e]pyridin-8-yl)carbamoyl)-4-(1-hydroxyethyl)-2-(2-hydroxypropan-2-yl)thiazole-5-sulfonimidamide]

IC50 [5]: 5 to 30 µM
Structure (SMILES): CCC1CCc2c1nc1c(c2NC(=O)N=S(N)(=O)c2sc(C(C)(C)O)cc2F)CCC1 (single isomer, unassigned) [Compound 671b, (S, R) or (S, S) or (R, S) or (R, R)-N′-((3-ethyl-1,2,3,5,6,7-hexahydrodicyclopenta [b,e]pyridin-8-yl)carbamoyl)-3-fluoro-5-(2-hydroxypropan-2-yl) thiophene-2-sulfonimidamide]

IC50 [3]: 5 to 30 µM
Structure (SMILES): Cc1c(C(F)(F)F)nc2c(c1NC(=O)N=S(N)(=O)c1cnn3c1OC[C@H](O)C3)CCC2 (stereo partly drawn) [Example 601, (6R)-6-hydroxy-N′-((3-methyl-2-(trifluoromethyl)-6,7-dihydro-5H-cyclopenta[b]pyridin-4-yl)carbamoyl)-6,7-dihydro-5H-pyrazolo[5,1-b][1,3]oxazine-3-sulfonimidamide]

IC50 (Table B4, class symbols, read-out: hTHP-1 IC50): 0.04 to 0.2 µM
Structure (SMILES): CCn1cc(F)c(S(N)(=O)=NC(=O)Nc2c3c(nc(C)c2-c2ccccc2)CCC3)n1 (single isomer, unassigned) [Example 770, (S) or (R)-1-ethyl-4-fluoro-N′-((2-methyl-3-phenyl-6,7-dihydro-5H-cyclopenta[b]pyridin-4-yl)carbamoyl)-1H-pyrazole-3-sulfonimidamide]

IC50 [3]: 0.2 to 1 µM
Structure (SMILES): CCn1cc(F)c(S(N)(=O)=NC(=O)Nc2c3c(nc4c2CC[C@@H]4C)CCC3)n1 (stereo partly drawn) [Example 616, 1-Ethyl-4-fluoro-N′-(((S)-3-methyl-1,2,3,5,6,7-hexahydrodicyclopenta[b,e]pyridin-8-yl)carbamoyl)-1H-pyrazole-3-sulfonimidamide]

IC50 [4]: 0.2 to 1 µM
Structure (SMILES): C[C@@H]1CCc2c1nc1c(c2NC(=O)N=S(N)(=O)c2ccn(C)n2)CCC1 (single isomer, unassigned) [Compound 639b, (R) or (S)-1-Methyl-N′-(((R)-3-methyl-1,2,3,5,6,7-hexahydrodicyclopenta [b,e]pyridin-8-yl)carbamoyl)-1H-pyrazole-3-sulfonimidamide]

IC50 [2]: 0.2 to 1 µM
Structure (SMILES): CC1CCc2c1nc1c(c2NC(=O)N=S(N)(=O)c2ccc(CN(C)C)cc2F)CCC1 (stereo not shown) [Compound 139, 4-((dimethylamino)methyl)-2-fluoro-N′-((3-methyl-1,2,3,5,6,7-hexahydrodicyclopenta[b,e]pyridin-8-yl)carbamoyl)benzenesulfon-imidamide]

IC50 (Homo sapiens, THP-1, Table B1, numeric bounds, read-out: Average IC50 of compounds in hTHP-1 assay: hTHP-1 IC50): > 30 µM
Structure (SMILES): CC1CCc2c1nc1c(c2NC(=O)N=S(N)(=O)c2ncc(C(C)(C)O)s2)CCC1 (single isomer, unassigned) [Compound 140bb, (S,R) or (S,S)-5-(2-hydroxypropan-2-yl)-N′-((3-methyl-1,2,3,5,6,7-hexa-hydrodicyclo-penta[b,e]pyridin-8-yl)carbamoyl)thiazole-2-sulfonimidamide]

IC50 (Homo sapiens, THP-1, Table B3, hTHP-1 assay, numeric values, read-out: IC50): > 30 µM
Structure (SMILES): Cc1nc2c(c(NC(=O)N=[S@@](N)(=O)c3cnc(C(C)(C)O)s3)c1C1CC1)CCC2 [Example 581, (R)-N′-((3-cyclopropyl-2-methyl-6,7-dihydro-5H-cyclopenta[b]pyridin-4-yl)carbamoyl)-2-(2-hydroxypropan-2-yl)thiazole-5-sulfonimidamide]

IC50 (Homo sapiens, THP-1, Table B4, numeric bounds, read-out: hTHP-1 IC50): > 30 µM
Structure (SMILES): C[C@@H]1CCc2c1nc1c(c2NC(=O)N=S(N)(=O)c2nn(-c3ccccc3)cc2F)CCC1 (single isomer, unassigned) [Example 792, (S) or (R)-4-fluoro-N′-(((R)-3-methyl-1,2,3,5,6,7-hexahydrodicyclopenta[b,e]pyridm-8-yl)carbamoyl)-1-phenyl-1H-pyrazole-3-sulfonimidamide]

IC50 [4]: 1 to 5 µM
Structure (SMILES): CCn1ccc(S(N)(=O)=NC(=O)Nc2c3c(nc(C4CC4)c2C2CC2)CCC3)n1 (stereo not shown) [Compound 726]

IC50 [1]: 1 to 5 µM
Structure (SMILES): CC1CCc2c1nc1c(c2NC(=O)N=S(N)(=O)c2sc(C(C)(C)O)cc2F)CCC1 (single isomer, unassigned) [Compound 103aa, (S,R) or (S,S)-3-fluoro-5-(2-hydroxypropan-2-yl)-N′-((3-methyl-1,2,3,5,6,7-hexahydrodicyclo-penta[b,e]pyridin-8-yl)carbamoyl)thiophene-2-sulfonimidamide]
